The source of these data is US7220753B2, “2,7-substituted octahydro-1H-pyrido[1,2-a]pyrazine derivatives as ligands for serotonin receptors” (Pfizer Inc., priority 1994, dated 2007).

Where a name gives a salt, the structure may show the parent alone. Some results are limits rather than exact numbers.

The melting point is the temperature, or range, at which the solid turns liquid. Turning to `c1ccc(OC[C@@H]2CC[C@H]3CN(c4ccncn4)CCN3C2)cc1` (racemic), the melting point was > 265 °C (dec.).

Molecule `c1ccc(O[C@@H]2CC[C@H]3CN(c4ncccn4)CCN3C2)cc1` (racemic) yielded a melting point of 147 to 148 °C. For `Fc1ccc(OC[C@@H]2CC[C@H]3CN(c4cccnn4)CCN3C2)cc1` (racemic) (as salt: sulfate) [Example 35, (7RS,9aSR)-7-(4-Fluorophenoxy)methyl-2-(pyridazin-3-yl)-2,3,4,6,7,8,9,9a-octahydro-1H-pyrido[1,2-a]pyrazine] the value was 246 to 250 °C. `Fc1cnc(N2CCN3C[C@H](COc4ccccc4)CC[C@H]3C2)nc1` (racemic) [Example 5, (7RS,9aSR)-7-Phenoxymethyl-2-(5-fluoropyrimidin-2-yl)-2,3,4,6,7,8,9,9a-octahydro-1H-pyrido[1,2-a]pyrazine] yielded a melting point of 215 to 217 °C. In turn, `Fc1ccc(OC[C@@H]2CC[C@H]3CN(c4ncc(Cl)cc4Cl)CCN3C2)cc1` (racemic) [Example 15, (7RS,9aSR)-7-(4-Fluorophenoxy)methyl-2-(3,5-dichloropyridin-2-yl)-2,3,4,6,7,8,9,9a-octahydro-1H-pyrido[1,2-a]pyrazine] displayed a melting point of 247 to 248 °C.

`Clc1ccc(N2CCN3C[C@H](COc4ccccc4)CC[C@H]3C2)nc1` (racemic) [Example 17, (7RS,9aSR)-7-Phenoxymethyl-2-(5-chloropyridin-2-yl)-2,3,4,6,7,8,9,9a-octahydro-1H-pyrido[1,2-a]pyrazine] yielded a melting point of 218 to 224 °C. Consider `N#Cc1cc(F)ccc1N1CCN2C[C@H](COc3ccc(F)cc3)CC[C@H]2C1` (racemic) [Example 23, (7RS,9aSR)-7-(4-Fluorophenoxy)methyl-2-(2-cyano-4-fluorophenyl)-2,3,4,6,7,8,9,9a-octahydro-1H-pyrido[1,2-a]pyrazine], for which the melting point was 235 to 240 °C. Consider `Fc1ccc(OC[C@@H]2CC[C@H]3CN(c4ccc(F)cn4)CCN3C2)cc1` (racemic) [Example 28, (7RS,9aSR)-7-(4-Fluorophenoxy)methyl-2,3,4,6,7,8,9,9a-octahydro-2-(5-fluoropyridin-2-yl)-1H-pyrido[1,2-a]pyrazine], for which the melting point lay within 214 to 215 °C. For the molecule `Clc1nccc(N2CCN3C[C@H](COc4ccccc4)CC[C@H]3C2)n1` (racemic) [Example 29, (7RS,9aSR)-7-Phenoxymethyl-2-(2-chloropyrimidin-4-yl)-2,3,4,6,7,8,9,9a-octahydro-1H-pyrido[1,2-a]pyrazine], the melting point was 227 to 233 °C (dec.). The molecule `c1ccc(OC[C@@H]2CC[C@H]3CN(c4cnccn4)CCN3C2)cc1` (racemic) [Example 30, (7RS,9aSR)-7-Phenoxymethyl-2-(pyrazin-2-yl)-2,3,4,6,7,8,9,9a-octahydro-1H-pyrido[1,2-a]pyrazine] displayed a melting point of 217 to 219 °C.

Turning to `Clc1cncc(N2CCN3C[C@H](COc4ccccc4)CC[C@H]3C2)n1` (racemic) [Example 31, (7RS,9aSR)-7-Phenoxymethyl-2-(6-chloropyrazin-2-yl)-2,3,4,6,7,8,9,9a-octahydro-1H-pyrido[1,2-a]pyrazine], the melting point was 247 °C (dec.). As to `Clc1ccc(N2CCN3C[C@H](COc4ccccc4)CC[C@H]3C2)nn1` (racemic) [Example 33, (7RS,9aSR)-7-Phenoxymethyl-2-(6-chloropyridazin-3-yl)-2,3,4,6,7,8,9,9a-octahydro-1H-pyrido[1,2-a]pyrazine], the melting point is > 265 °C (dec.). In turn, `Fc1ccc2c(ccn2C[C@@H]2CC[C@H]3CN(c4ncccn4)CCN3C2)c1` (racemic) [Example 40, (7RS,9aSR)-7-(5-Fluoroindol-1-ylmethyl)-2-(pyrimidin-2-yl)-2,3,4,6,7,8,9,9a-octahydro-1H-pyrido[1,2-a]pyrazine] returned a melting point of 70 to 72 °C.

In turn, `CSc1nc(N2CCN3CC(COc4ccccc4)CCC3C2)ncc1F` (stereo not drawn) [Example 4, (7RS,9aSR)-7-Phenoxymethyl-2-(5-fluoro-4-thiomethylpyrimidin-2-yl)-2,3,4,6,7,8,9,9a-octahydro-1H-pyrido[1,2-a]pyrazine] gave a melting point of 192 to 198 °C. For `CSc1nc(N2CCN3CC(COc4ccc(F)cc4)CCC3C2)ncc1F` (stereo not drawn) [Example 6, (7RS,9aSR)-7-(4-Fluorophenoxy)methyl-2-(5-fluoro-4-thiomethyl-pyrimidin-2-yl)-2,3,4,6,7,8,9,9a-octahydro-1H-pyrido[1,2-a]pyrazine] the value was 201 to 210 °C; for `Fc1cnc(N2CCN3C[C@H](CCc4ccccc4)CC[C@H]3C2)nc1` [Example 12, (7R,9aS)-7-(2-Phenyl)ethyl-2-(5-fluoropyrimidin-2-yl)-2,3,4,6,7,8,9,9a-octahydro-1H-pyrido[1,2-a]pyrazine], 250 to 252 °C. Turning to `Fc1ccc(OC[C@@H]2CC[C@H]3CN(c4ccccn4)CCN3C2)cc1` [Example 18, (7R,9aS)-7-(4-Fluorophenoxy)methyl-2-(pyridin-2-yl)-2,3,4,6,7,8,9,9a-octahydro-1H-pyrido[1,2-a]pyrazine], the melting point lay in the range of 261 to 263 °C. In turn, `Fc1ccc(OC[C@@H]2CC[C@H]3CN(c4ccc(Cl)nn4)CCN3C2)cc1` [Example 20, (7R,9aS)-7-(4-Fluorophenoxy)methyl-2-(6-chloropyridazin-3-yl)-2,3,4,6,7,8,9,9a-octahydro-1H-pyrido[1,2-a]pyrazine] yielded a melting point of 265 to 270 °C. For the molecule `Nc1cc(F)ccc1N1CCN2C[C@H](COc3ccc(F)cc3)CC[C@H]2C1` [Example 24, (7R,9aS)-7-(4-Fluorophenoxy)methyl-2-(2-amino-4-fluorophenyl)-2,3,4,6,7,8,9,9a-octahydro-1H-pyrido[1,2-a]pyrazine], the melting point is 144 to 149 °C.

As to `Fc1ccc(OC[C@@H]2CCC3CN(c4ccccc4)CCN3C2)cc1` (some centres unmarked) [Example 26], the melting point fell in the range of 247 to 252 °C. Regarding `COc1cccc(N2CCN3C[C@H](COc4ccc(F)cc4)CCC3C2)n1` (stereo partly drawn) [Example 27, (7RS,9aSR)-7-(4-Fluorophenoxy)methyl-2-(6-methoxypyridin-2-yl)-2,3,4,6,7,8,9,9a octahydro-1H-pyrido[1,2-a]pyrazine], the melting point is 228 to 230 °C. Molecule `O=c1oc2ccccc2n1C[C@@H]1CC[C@H]2CN(c3ccc(Cl)cn3)CCN2C1` [Example 39, 3-[(7R,9aS)-2-(5-Chloropyridin-2-yl)-2,3,4,6,7,8,9,9a-octahydro-1H-pyrido[1,2-a]-pyrazin-7-ylmethyl]-3H-benzoxazol-2-one] returned a melting point of 247 to 248 °C. The molecule `Fc1ccc(SC[C@@H]2CCC3CN(c4ncccn4)CCN3C2)cc1` (some centres unmarked) [Example 41] gave a melting point of 99 to 101 °C. The molecule `O=S(=O)(C[C@@H]1CCC2CN(c3ncccn3)CCN2C1)c1ccc(F)cc1` (stereo partly drawn) [Example 42, (7RS,9aSR)-7-(4-Fluorophenylsulfonyl)methyl-2-(pyrmidin-2-yl)-2,3,4,6,7,8,9,9a-octahydro-1H-pyrido[1,2-a]pyrazine] yielded a melting point of 155 to 157 °C. As for `Fc1cnc(N2CCN3C[C@H](Cn4ccc5cc(F)ccc54)CC[C@H]3C2)nc1` [Example 43, (7R,9aS)-7-(5-Fluoroindol-1-yl)methyl-2-(5-fluoropyrimidin-2-yl)-2,3,4,6,7,8,9,9a-octahydro-1H-pyrido[1,2-a]pyrazine], the melting point fell in the range of 180 to 182 °C. On to `O=C1Cc2ccccc2N1C[C@@H]1CC[C@H]2CN(c3ncccn3)CCN2C1` [Example 44, 1-[(7R,9aS)-2-(Pyrimidin-2-yl)-2,3,4,6,7,8,9,9a-octahydro-1H-pyrido[1,2-a]pyrazin-7-ylmethyl]-1,3-dihydro-indol-2-one], for which the melting point lay within 174 to 176 °C.
